According to paper PMC3502511, “Inhibition of the Prokaryotic Pentameric Ligand-Gated Ion Channel ELIC by Divalent Cations” (PLoS Biology, 2012):

Key:
Format in all cases: cell-based, Erwinia chrysanthemi
[1] = biological target: T1, ELIC WT (Dickeya chrysanthemi, UniProt P0C7B7, INS163G); assay: cell-based; settings: Ki app, Schild analysis
T1 construct: expressed in transfected cells; host or cells: X. laevis oocytes (cRNA injection, pTLN vector)
Experimental: (§1) Constructs containing the gene of either the WT or mutant channels preceded by the signal sequence of the chicken α7nAchR were cloned into the pTLN vector for expression in X. laevis oocytes. After linearization of the plasmid DNA by MluI, capped complementary RNA was transcribed with the mMessage mMachine kit (Ambion) and purified with the RNeasy kit (Qiagen). For expression, 1–50 ng of RNA was injected into defolliculated oocytes. Two-electrode voltage clamp measurements were performed 1 d after injection at 20°C (OC-725B, Warner Instrument Corp.). Currents were recorded in bath solutions containing 10 mM HEPES (pH 7), 130 mM NaCl, and the indicated concentrations of cysteamine and divalent cations. In case of solutions containing Zn^2+, cysteamine was replaced by propylamine. The membrane potential in all dose–response measurements was set to −40 mV. As ELIC is permeable to divalent cations, we tested if endogenous calcium-activated chloride channels affected our measurements. To chelate intracellular calcium ions, the oocytes were incubated for 15 to 30 min in bath solutions lacking divalent ions but containing 10 µM BAPTA-AM.

[2] = biological target: T2, ELIC D113A/D158A (Dickeya chrysanthemi, UniProt P0C7B7, D113A/D158A/INS163G); assay: cell-based
T2 construct: expressed in transfected cells; host or cells: X. laevis oocytes
Experimental: as §1

[3] = biological target: T3, ELIC R91A (Dickeya chrysanthemi, UniProt P0C7B7, INS163G/R91A); assay: Two-electrode voltage clamp, ELIC R91A in oocytes
T3 construct: expressed in transfected cells; host or cells: X. laevis oocytes
Experimental: as §1

**Q.** With `CC(=O)OCC[N+](C)(C)C` [ACh, acetylcholine] as the molecule, how does the Ki ([1]; WT/1 mM Ca^2+) read?
**A.** 2200 µM

**Q.** And the Ki ([1]; WT/.25 mM Ca^2+)?
**A.** 1200 µM

**Q.** And the Ki ([1]; WT/.5 mM Ca^2+)?
**A.** 1300 µM

**Q.** What about the Ki ([1]; WT, agonist cysteamine) of the same molecule?
**A.** 1600 µM

**Q.** And the Ki [2]?
**A.** 2100 µM

**Q.** And the Ki [3]?
**A.** 170 µM
